Measured values reported in patent US6413986B1, “[1-indanon-2-yl]methylpiperidines” (Aventis Pharmaceuticals Inc., priority 1991, dated 2002).

molecular target: T1, Acetylcholinesterase (Rattus norvegicus, UniProt P37136); assay: inhibition of acetyl cholinesterase activity (acetylthiocholine/DTNB spectrophotometric assay, rat striatal homogenate); format: biochemical, Male Wistar rats; details: rat corpora striata homogenate; preincubated for 10 minutes at 37° C.; substrate acetylthiocholine 5 mM final; DTNB 0.5 mM; 412 nm; log-probit analysis
T1 construct: Male Wistar rats are decapitated, brains rapidly removed, corpora striata dissected free, weighed and homogenized; from tissue; host or cells: rat brain corpora striata homogenate (male Wistar rats)
T1 sequence (P37136 32-614): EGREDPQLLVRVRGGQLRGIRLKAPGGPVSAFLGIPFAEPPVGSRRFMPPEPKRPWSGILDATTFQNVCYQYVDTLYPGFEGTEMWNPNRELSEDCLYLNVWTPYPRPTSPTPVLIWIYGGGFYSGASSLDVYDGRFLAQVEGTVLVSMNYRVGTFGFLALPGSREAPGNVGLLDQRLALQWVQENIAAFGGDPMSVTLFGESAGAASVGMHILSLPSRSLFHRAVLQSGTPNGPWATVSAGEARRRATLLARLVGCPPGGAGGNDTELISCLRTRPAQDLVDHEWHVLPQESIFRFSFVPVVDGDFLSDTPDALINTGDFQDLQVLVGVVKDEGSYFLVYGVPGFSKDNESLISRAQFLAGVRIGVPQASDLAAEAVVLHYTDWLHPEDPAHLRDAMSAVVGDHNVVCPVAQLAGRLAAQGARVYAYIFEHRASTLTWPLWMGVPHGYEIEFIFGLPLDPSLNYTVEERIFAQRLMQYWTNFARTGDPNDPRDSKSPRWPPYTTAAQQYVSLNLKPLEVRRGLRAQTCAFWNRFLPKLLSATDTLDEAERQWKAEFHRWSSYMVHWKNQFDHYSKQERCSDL
Protocol: The [1-indanon-2-yl]methylpiperidines of the present invention are useful as agents for the relief of memory dysfunction, particularly dysfunctions associated with decreased cholinergic activity such as those found in Alzheimer's disease.
4. A 2 mM stock solution of the test drug is made up in a suitable solvent and q.sed to volume with 0.5 mM DTNB (reagent 3). Drugs are serially diluted (1:10) such that the final concentration (in cuvette) is 10^−4M and screened for activity. If active, IC50 values are determined from the inhibitory activity of subsequent concentrations.
Male Wistar rats are decapitated, brains rapidly removed, corpora striata dissected free, weighed and homogenized in 19 volumes (approximately 7 mg protein/ml) of 0.05 M sodium phosphate, pH 7.2 using a Potter-Elvehjem homogenizer. A 25 μl aliquot of this suspension is added to 1 ml of the vehicle or various concentrations of the test drug and preincubated for 10 minutes at 37° C.
Enzyme activity is measured with the Beckman DU-50 spectrophotometer. This method can be used for IC50 determinations and for measuring kinetic constants.
Reagents are added to the blank and sample cuvettes as follows:
Blank values are determined for each run to control for non-enzymatic hydrolysis of substrate and these values are automatically subtracted by the kindata program available on kinetics soft-pac module. This program also calculates the rate of absorbance change for each cuvette.
Substrate concentration is 10 mM diluted 1:2 in assay yielding final concentration of 5 mM. DTNB concentration is 0.5 mM final concentration
% Inhibition=slope control-slope drug/slope control×100
IC50 values are calculated from log-probit analysis.

Compound | IC50 [nM]
CCCCNC(=O)Oc1ccc2c(c1)C(=O)C(CC1CCN(Cc3ccccc3)CC1)C2 (stereo not shown) [1-Benzyl-4-[[6-(butylaminocarbonyloxy)-1-indanon]-2-yl]methylpiperidine] | 1430
CNC(=O)Oc1ccc2c(c1)C(=O)C(CC1CCN(Cc3ccccc3)CC1)C2 (stereo not shown) [1-Benzyl-4-[[6-methylaminocarbonyloxy)-1-indanon]-2-yl]methylpiperidine] | 1340
CNC(=O)Oc1ccc2c(c1)C(=O)C(CC1CCN(Cc3cccc(F)c3)CC1)C2 (stereo not shown) [1-(3-Fluorobenzyl)-4-[[6-(methylaminocarbonyloxy)-1-indanon]-2-yl]methylpiperidine] | 1510
O=C(NCc1ccccc1)Oc1ccc2c(c1)C(=O)C(CC1CCN(Cc3cccc(F)c3)CC1)C2 (stereo not shown) [1-(3-Fluorobenzyl)-4-[[6-(benzylaminocarbonyloxy)-1-indanon]-2-yl]-methylpiperidine] | 3170
